According to PMC12592502, “Unraveling the mechanisms behind the enhanced efficacy of β-lactam-based sideromycins” (Communications Biology, 2025):
In brackets after ≈: the same amount, converted by molar mass. Like-named read-outs stand apart in the source and are kept apart here. Marks after values point to notes of the source that are not given here.

Tests used:
AmpC (PDC-5) = AmpC (PDC-5) (Pseudomonas aeruginosa, UniProt P24735, R79Q/T105A); test: biochemical; type: biochemical, P. aeruginosa ATCC 27853
Procedure: The purification of AmpC from the culture supernatant obtained above was conducted as described in the Catwright and Waley protocol[52] using an Affi-gel 10 matrix (Bio-Rad, Hercules, CA, USA) loaded in a column (G-Bioscience, St-Louis, MO, USA). First, the resin was washed with cold deionized water. The resin was then collected and mixed with 20 mL of the 3-aminophenylboronic acid solution (1 M KHCO3 containing 2 g of 3-aminophenyl boronic acid and 2 g of sorbitol) at 4 °C for 1 h, and the pH was maintained at 8 with solid KHCO3. The mixture was loaded onto the column and washed with 10 column volumes of 1 M NaCl/0.5 M sorbitol (pH 7), followed by 10 column volumes of 0.5 M borate (pH 7), and then 10 column volumes of the loading buffer (20 mM triethanolamine HCl/0.5 M NaCl, pH 7). The sample was dialyzed in the loading buffer before being loaded onto the column. The column was washed with the loading buffer until no absorbance was measured at OD280. AmpC was eluted in fractions of 1 mL with 0.5 M borate/0.5 M NaCl pH 7. […] The purity was visualized on a 10% bis-acrylamide gel. Only pure fractions showing a single band at 40 kDa were pooled together and then dialyzed at 4 °C in a KP buffer 0.05 M pH 7 (see Fig. S2). The protein concentration was determined with a Bradford protein reagent (Bio-Rad).
(§1) Enzyme concentrations were 20 nM for AmpC and SHV-1, and 50 nM for OXA-98. Quartz cuvette (FireflySci Inc., Northport, NY) with 1 cm length path and 2 mm inside width was used with an Ultrospec 2100 Pro (Biochrom, Harvard Bioscience Inc., USA) to acquire the kinetic measures. […] The following extinction coefficients (Δε) and wavelengths (λ) were used:
(§2) The steady-state parameters (Km and Kcat) were determined by plotting the initial velocity against substrate concentrations (Michaelis–Menten curve). The Kcat was measured using the Vmax (μM/sec) divided by the total enzyme concentration and the catalytic efficiency was further calculated (Kcat/Km). SHV-1 parameters were determined with three Michaelis–Menten curves of at least seven substrate concentrations, while OXA-98 and AmpC were duplicates of curves of at least seven substrate concentrations. […] Initial velocities were measured at room temperature (25 °C). The Vmax and Km were calculated using least squares fit regression in GraphPad version 10.2.2. Ki was measured using a derivative of IC50 with an adaptation of the Cheng–Prusoff equation[55]. […] The corrected Ki was calculated using this formula: Kicorrected=Ki(observed)/1+S/KmNCF

E. coli MC4100 = test: MIC; type: cell-based, Escherichia coli; details: for MIC in combination with PAβN: + 25 µg/mL PAβN
Procedure: (§3) All bacterial strains (see description and sources Table S1) were stored at −80 °C, and grown on tryptone soya agar (TSA) at 35 °C. The iron-deprived (ID)-MHBCA (cation-adjusted Muller-Hinton Broth, Becton Dickinson, Mississauga, ON, Canada) medium was prepared as reported by refs. [21],[50]. Briefly, MHBCA was treated with 10% Chelex® 50-100 mesh (Sigma) and stirred for 6 h at room temperature. The resin was removed by filtration. Divalent Ca^2+ (CaCl2), Mg^2+ (MgCl2), and Zn^2+(ZnSO4), were then added in the iron-depleted medium at 22, 12, and 1 μg/ml respectively. Finally, the pH was adjusted to 7.3, and the medium was sterilized with a 0.2-μm filter. Regular MHBCA (i.e., not treated with Chelex®) was used to compare the inhibitory activity of conjugates in iron-sufficient conditions.
(§4) Minimal inhibitory concentrations (MICs) were performed using a broth microdilution technique according to the Clinical and Laboratory Standards Institute (CLSI) guidelines. MICs were determined in MHBCA and in ID-MHBCA. To check the impact of β-lactamases, MICs in the presence of a β-lactamase inhibitor were also determined. The inhibitor was homogenized at 2X the final concentration and added to the bacterial inoculum just before distributing cells into the wells containing the drug dilutions. The final concentration of each inhibitor was 4 μg/mL for clavulanic acid (tested against K. pneumoniae) and 200 μg/mL for 3-aminophenylboronic acid (tested against P. aeruginosa and A. baumannii).

E. coli ΔentE = test: MIC, Keio mutant; type: cell-based, Escherichia coli
Procedure: as §3, §4

E. coli ΔtonB = test: MIC, Keio mutant; type: cell-based, Escherichia coli
Procedure: as §3, §4

E. coli ΔfepA = test: MIC, Keio mutant; type: cell-based, Escherichia coli
Procedure: as §3, §4

E. coli ΔfecA = test: MIC, Keio mutant; type: cell-based, Escherichia coli
Procedure: as §3, §4

SHV-1 = SHV-1 (Klebsiella pneumoniae, UniProt P0AD64); test: biochemical
Procedure: as §1, §2

E. coli BW25113 = test: MIC, parental strain of Keio mutants; type: cell-based, Escherichia coli
Procedure: as §3, §4

[1] = Antibiotic stability in 4-h bacterial culture supernatant; type: physicochemical; details: for additional decrease of residual concentration in used supernatants versus medium: 4-h supernatants with and without iron, after 3 h; for percentage of antibiotic degradation in [bacterial supernatant]: 3 h
Procedure: For analysis, the determined concentration in the supernatant was adjusted for the degradation of the molecules measured in the stability control tests for each time point. The final net antibiotic concentration in the medium was calculated at each time point by adding the concentration caused by degradation to the concentration of the test antibiotic measured in the assay tubes containing bacteria. […] A second control was added for the β-lactam LOR and CEF to verify the impact of metabolic waste on the stability of the molecules. The supernatant from the 4-h growth control without antibiotic was collected by filtration 0.2 µm. LOR and CEF were then added to the filtrated supernatant at 200 µM, and degradation was measured after 3 h.

[2] = Escherichia coli, MC4100, MC4100, ID-MHBCA (−), read-out: MIC
[3] = Escherichia coli, BW25113, BW25113, ID-MHBCA
[4] = Escherichia coli, BW25113, BW25113, MHBCA
[5] = Escherichia coli, MC4100, MC4100, MHBCA (+), without PAβN, read-out: MIC
[6] = Escherichia coli, MC4100, MHBCA (+), without PAβN, read-out: MIC
[7] = MC4100, efflux pump mutant table S5, read-out: MIC
[8] = supernatant of 4-hour culture in ID-MHBCA

Sequence of SHV-1 (P0AD64 23-286): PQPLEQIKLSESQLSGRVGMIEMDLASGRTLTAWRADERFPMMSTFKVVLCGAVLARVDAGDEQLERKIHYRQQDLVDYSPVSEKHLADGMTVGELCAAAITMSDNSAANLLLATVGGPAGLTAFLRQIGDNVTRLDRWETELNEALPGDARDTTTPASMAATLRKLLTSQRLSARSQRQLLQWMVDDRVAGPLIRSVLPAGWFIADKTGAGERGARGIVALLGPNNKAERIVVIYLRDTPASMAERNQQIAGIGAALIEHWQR
Sequence of AmpC (PDC-5) (P24735 27-397 R79Q/T105A): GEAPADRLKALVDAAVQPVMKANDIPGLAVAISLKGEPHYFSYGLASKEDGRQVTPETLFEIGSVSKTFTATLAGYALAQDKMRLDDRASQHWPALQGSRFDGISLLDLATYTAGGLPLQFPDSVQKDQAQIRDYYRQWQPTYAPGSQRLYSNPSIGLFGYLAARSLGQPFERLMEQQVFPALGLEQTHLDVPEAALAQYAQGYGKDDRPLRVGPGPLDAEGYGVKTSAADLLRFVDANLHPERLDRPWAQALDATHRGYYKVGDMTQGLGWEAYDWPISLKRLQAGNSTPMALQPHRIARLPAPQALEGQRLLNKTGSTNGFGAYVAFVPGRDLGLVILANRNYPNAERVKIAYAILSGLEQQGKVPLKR

Compound	Ki (AmpC (PDC-5)) [µM]	MIC (E. coli MC4100; [2]) [µM]	MIC ratio unconjugated β-lactam/conjugate (E. coli MC4100; MC4100, ID-MHBCA)	MIC ratio unconjugated β-lactam/conjugate (E. coli MC4100; MC4100, MHBCA)	MIC in combination with PAβN (E. coli MC4100; MC4100, MHBCA) [µM]	MIC (E. coli ΔentE; Escherichia coli, ID-MHBCA) [µM]	MIC (E. coli ΔentE; Escherichia coli, MHBCA) [µM]	MIC (E. coli ΔtonB; Escherichia coli) [µM]	MIC (E. coli ΔtonB; ΔtonB, MHBCA)	MIC (E. coli ΔfepA; Escherichia coli, ID-MHBCA) [µM]	MIC (E. coli ΔfepA; Escherichia coli, MHBCA) [µM]	MIC (E. coli ΔfepA; MHBCA) [µM]	MIC (E. coli ΔfecA; Escherichia coli, ID-MHBCA) [µM]	MIC (E. coli ΔfecA; Escherichia coli, MHBCA) [µM]	MIC (E. coli BW25113; [3]) [µM]	MIC (E. coli BW25113; [4]) [µM]	MIC (E. coli MC4100; [5]) [µM]	MIC (E. coli MC4100; [6]) [µM]	MIC (E. coli MC4100; [7]) [µM]	MIC (E. coli BW25113; BW25113, ID-MHBCA) [µM]	other results
CC1(C)S[C@@H]2[C@H](NC(=O)[C@H](N)c3ccccc3)C(=O)N2[C@H]1C(=O)O [AMP, ampicillin, reference compound]	15 ± 1	–	–	–	–	–	–	–	–	–	–	–	–	–	–	–	–	–	–	–	–
CC1(C)SC2C(NC(=O)C(NC(=O)CN(CCCCNC(=O)c3cccc(O)c3O)C(=O)c3cccc(O)c3O)c3ccccc3)C(=O)N2C1C(=O)O (stereo not drawn) [BAMP, bis-catechol (azotochelin)-ampicillin]	19 ± 1	0.024 (≈ 0.018 µg/mL)	512	256	0.2	0.05 (≈ 0.0375 µg/mL)	0.2 (≈ 0.15 µg/mL)	50 (≈ 37.5 µg/mL)	50^c μM	0.024 (≈ 0.018 µg/mL)	0.1 to 0.4 (≈ 0.075 to 0.3 µg/mL)	0.2 (≈ 0.15 µg/mL)	0.006 (≈ 0.0045 µg/mL)	≤ 0.003	0.024 (≈ 0.018 µg/mL)	0.05 (≈ 0.0375 µg/mL)	–	–	–	–	MIC (E. coli MC4100; Escherichia coli, MC4100): 0.05 µM (≈ 0.0375 µg/mL); Ki (SHV-1): 184 ± 14 µM
O=C(CCC(=O)N(CCCCNC(=O)c1cccc(O)c1O)CCCNC(=O)c1cccc(O)c1O)NCCCCCN(O)C(=O)CCCC(=O)NC(C(=O)NC1C(=O)N2C(C(=O)O)=C(Cl)CSC12)c1ccccc1 (stereo not drawn) [MCEF, mixed ligand bis-catechol-mono-hydroxamate-cefaclor]	–	> 200	< 0.016	–	> 200	1.6 (≈ 1.73 µg/mL)	13 (≈ 14.1 µg/mL)	25 (≈ 27 µg/mL)	–	> 200	13 (≈ 14.1 µg/mL)	–	> 200	13 (≈ 14.1 µg/mL)	> 200	13 (≈ 14.1 µg/mL)	6.3 to 25 (≈ 6.81 to 27 µg/mL)	6.3 (≈ 6.81 µg/mL)	6.3 (≈ 6.81 µg/mL)	>200	–
N[C@@H](C(=O)N[C@@H]1C(=O)N2C(C(=O)O)=C(Cl)CC[C@H]12)c1ccccc1 [LOR, loracarbef, reference compound]	–	–	–	–	6.3	–	–	–	6.3 µM (≈ 2.2 µg/mL)	–	–	6.3 (≈ 2.2 µg/mL)	–	–	–	–	–	–	3.1 (≈ 1.08 µg/mL)	6.3 (≈ 2.2 µg/mL)	MIC (E. coli MC4100; MC4100, ID-MHBCA (−), read-out: MIC): 3.1 µM (≈ 1.08 µg/mL); MIC (E. coli MC4100; MC4100, MHBCA (+), without PAβN, read-out: MIC): 3.1 µM (≈ 1.08 µg/mL); MIC (E. coli ΔentE; ID-MHBCA): 6.3 µM (≈ 2.2 µg/mL); MIC (E. coli ΔentE; MHBCA): 6.3 µM (≈ 2.2 µg/mL); MIC (E. coli ΔfepA; ID-MHBCA): 13 µM (≈ 4.55 µg/mL); MIC (E. coli ΔfecA; ID-MHBCA): 6.3 µM (≈ 2.2 µg/mL); MIC (E. coli ΔfecA; MHBCA): 3.1 µM (≈ 1.08 µg/mL); Km (AmpC (PDC-5); Michaelis–Menten curves, n = 2, read-out: AmpC (PDC-5) Km): 22 ± 0.5 µM; AmpC (PDC-5) Vmax (AmpC (PDC-5); n = 2): 15 ± 0.3 µmol·mg/min; SHV-1 Kcat (SHV-1; n = 3): 7.4 ± 0.5 s⁻¹; Km (SHV-1; read-out: SHV-1 Km, Michaelis–Menten curves, n = 3, 25 °C): 29 ± 9 µM; additional decrease of residual concentration in used supernatants versus medium [1]: ≤ 12%; percentage of antibiotic degradation in [bacterial supernatant] [1, 8]: 11%; MIC (E. coli BW25113; BW25113, MHBCA): 6.3 µM (≈ 2.2 µg/mL)
N[C@@H](C(=O)N[C@@H]1C(=O)N2C(C(=O)O)=C(Cl)CS[C@H]12)c1ccccc1 [CEF, cefaclor, reference compound]	–	3.1 (≈ 1.14 µg/mL)	–	–	13	6.3 (≈ 2.32 µg/mL)	6.3 (≈ 2.32 µg/mL)	13 (≈ 4.78 µg/mL)	–	25 (≈ 9.2 µg/mL)	13 (≈ 4.78 µg/mL)	–	6.3 (≈ 2.32 µg/mL)	6.3 (≈ 2.32 µg/mL)	6.3 (≈ 2.32 µg/mL)	6.3 (≈ 2.32 µg/mL)	6.3 (≈ 2.32 µg/mL)	–	–	–	additional decrease of residual concentration in used supernatants versus medium [1]: ≤ 12%; percentage of antibiotic degradation in [bacterial supernatant] [1, 8]: 32%; percentage of antibiotic degradation in [bacterial supernatant] ([1]; supernatant of 4-hour culture in MHBCA): 36%
O=C(CN(CCCCNC(=O)c1cccc(O)c1O)C(=O)c1cccc(O)c1O)NC(C(=O)NC1C(=O)N2C(C(=O)O)=C(Cl)CCC12)c1ccccc1 (stereo not drawn) [BLOR, bis-catechol (azotochelin)-loracarbef]	–	0.006 (≈ 0.0045 µg/mL)	512	256	0.2	0.012 (≈ 0.009 µg/mL)	0.05 (≈ 0.0375 µg/mL)	50 (≈ 37.5 µg/mL)	–	0.012 (≈ 0.009 µg/mL)	0.1 to 0.4 (≈ 0.075 to 0.3 µg/mL)	0.1 (≈ 0.075 µg/mL)	≤ 0.003	≤ 0.003	0.006 (≈ 0.0045 µg/mL)	0.012 (≈ 0.009 µg/mL)	0.012 (≈ 0.009 µg/mL)	0.024 (≈ 0.018 µg/mL)	0.024 (≈ 0.018 µg/mL)	–	AmpC (PDC-5) Vmax (AmpC (PDC-5); n = 2): 11 ± 1 µmol·mg/min
